Reference: ChEMBL document CHEMBL4376816, “Discovery of the Oral Leukotriene C4 Synthase Inhibitor (1S,2S)-2-({5-[(5-Chloro-2,4-difluorophenyl)(2-fluoro-2-methylpropyl)amino]-3-methoxypyrazin-2-yl}carbonyl)cyclopropanecarboxylic Acid (AZD9898) as a New Treatment for Asthma” (J Med Chem, 2019)
Values belong to the compound of their own block, whether it stands above or below them. Calls of active or inactive are those of the source. No cut-off for these calls is given here.

Legend:
[1] = Intrinsic clearance in human hepatocytes at 1 uM assessed as per million cells after 2 to 60 mins by LC-MS/MS analysis; format: ADME, cell-based, Hepatocyte; conditions: read-out: CLH
[2] = Displacement of [3H]-GABA/[3]-muscimol from GABA gated chloride channel in Sprague-Dawley rat cortical synoptic membranes by liquid scintillation analysis
[3] = Octanol/Sodium phosphate buffer partition coefficient, log D of compound at pH 7.4 at 1 mg incubated for overnight under shaking condition by LC-MS/MS analysis; format: physicochemical
[4] = target: T1, Leukotriene C4 synthase (Homo sapiens, UniProt Q16873)
T1 sequence (Q16873 whole entry): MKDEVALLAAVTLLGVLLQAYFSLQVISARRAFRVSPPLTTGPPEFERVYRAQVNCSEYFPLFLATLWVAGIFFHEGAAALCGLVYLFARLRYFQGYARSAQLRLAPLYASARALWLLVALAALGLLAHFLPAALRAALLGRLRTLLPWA

[5] = target: T1, Leukotriene C4 synthase; remark: listed apart in the source
[6] = target: T2, Leukotriene C4 synthase (Homo sapiens) (UniProt Q16873); assay: Inhibition of LTC4S in asthmatic human whole blood assessed as inhibition of calcium ionophore A23187 stimulated cysteinyl leukotrienes production preincuabted for 30 mins followed by calcium ionophore stimulation and measured after 10 mins by LC-MS analysis; format: tissue-based
T2 sequence (whole entry): T1 sequence (Q16873 whole entry)

[7] = target: T2, Leukotriene C4 synthase (Homo sapiens); assay: Inhibition of LTC4S in healthy human whole blood assessed as inhibition of calcium ionophore A23187 stimulated cysteinyl leukotrienes production preincuabted for 30 mins followed by calcium ionophore stimulation and measured after 10 mins by LC-MS analysis; format: tissue-based
[8] = target: T2, Leukotriene C4 synthase (Homo sapiens)

SMILES: COc1ccccc1C(=O)Nc1ccc(C(=O)c2ccc(N(C)c3ccc(Cl)cc3)cn2)cc1C(=O)O
IC50 [4]: 35 nM

SMILES: COc1cc(N(CC2CC2)c2ccc(Cl)c3ccccc23)cnc1C(=O)CCCC(=O)O
hepatocyte CLint at 1 µM [1]: 6.8 µL/min/1e6 cells
logD [3]: 2.8

SMILES: COc1nc(N(CC(C)C)c2cc(Cl)c(F)cc2F)cnc1C(=O)[C@H]1C[C@@H]1C(=O)O
IC50 [4]: 0.28 nM
hepatocyte CLint at 1 µM [1]: 3 µL/min/1e6 cells
IC50 [5]: 4.1 nM
logD [3]: 1.8

SMILES: COc1nc(N(CC(C)C)c2cc(C(F)(F)F)ccc2F)cnc1C(=O)[C@H]1C[C@@H]1C(=O)O
IC50 [4]: 0.36 nM
hepatocyte CLint at 1 µM [1]: 2.9 µL/min/1e6 cells
IC50 [5]: 3.5 nM
logD [3]: 2

SMILES: CC(c1cc2ccccc2s1)N(O)C(N)=O (stereo not given)
inhibition [6]: Active
inhibition [7]: Active

SMILES: COc1cc(N(CC(C)(C)F)c2cc(C(F)(F)F)ccc2F)cnc1C(=O)[C@H]1C[C@@H]1C(=O)O
hepatocyte CLint at 1 µM [1]: < 1 µL/min/1e6 cells
logD [3]: 0.8

SMILES: COc1cc(N(CC(C)(C)F)c2cccc(C(F)(F)F)c2)cnc1C(=O)[C@H]1C[C@@H]1C(=O)O
hepatocyte CLint at 1 µM [1]: < 1.5 µL/min/1e6 cells
IC50 [2]: 54000 nM
logD [3]: 0.9

SMILES: COc1nc(C(=O)[C@@H]2C[C@H]2C(=O)O)ncc1N(CC1CC1)c1ccc(Cl)c2ccccc12 (relative stereo)
IC50 [4]: 15.5 nM
hepatocyte CLint at 1 µM [1]: 15 µL/min/1e6 cells
logD [3]: 2.9

SMILES: COc1cc(N(CC2CC2)c2ccc(Cl)cc2)cnc1C(=O)c1cccc(C(=O)O)c1
hepatocyte CLint at 1 µM [1]: 28 µL/min/1e6 cells
logD [3]: 1.7

SMILES: COc1cc(N(CC(C)C)c2cc(C(F)(F)F)ccc2F)cnc1C(=O)[C@H]1C[C@@H]1C(=O)O
hepatocyte CLint at 1 µM [1]: 3.9 µL/min/1e6 cells
IC50 [5]: 6.8 nM
logD [3]: 1.4

SMILES: COc1cc(N(CC(C)C)c2cc(Cl)c(F)cc2F)cnc1C(=O)[C@H]1C[C@@H]1C(=O)O
hepatocyte CLint at 1 µM [1]: 4.9 µL/min/1e6 cells
logD [3]: 1.3

SMILES: COc1cc(N(CC(C)(C)F)c2cc(Cl)c(F)cc2F)cnc1C(=O)[C@H]1C[C@@H]1C(=O)O
hepatocyte CLint at 1 µM [1]: < 1.7 µL/min/1e6 cells
logD [3]: 0.8

SMILES: COc1cc(N(Cc2ccc(F)cc2)c2cccc(C(F)(F)F)c2)cnc1C(=O)[C@H]1C[C@@H]1C(=O)O
hepatocyte CLint at 1 µM [1]: 4.2 µL/min/1e6 cells
logD [3]: 1.9

SMILES: COc1nc(N(CC(C)(C)F)c2cc(C(F)(F)F)ccc2F)cnc1C(=O)[C@H]1C[C@@H]1C(=O)O
hepatocyte CLint at 1 µM [1]: 1.5 µL/min/1e6 cells
IC50 [5]: 7.8 nM
logD [3]: 1.2

SMILES: O=C(Nc1ccc(Cc2ccc(NC(=O)c3ccccc3)c(C(=O)O)c2)cc1C(=O)O)c1ccccc1
inhibition [8]: inactive
IC50 [4]: 1900 nM

Further lines, results first:

hepatocyte CLint at 1 µM [1]: < 1.5 µL/min/1e6 cells
IC50 [2]: 5400 nM
logD [3]: 1.1
SMILES: COc1cc(N(CC2CC2)c2cc(Cl)c(F)cc2F)cnc1C(=O)[C@H]1C[C@@H]1C(=O)O

hepatocyte CLint at 1 µM [1]: 3 µL/min/1e6 cells
logD [3]: 0.65
SMILES: COc1cc(N(CC2CC2)c2ccccc2)cnc1C(=O)[C@H]1C[C@@H]1C(=O)O

hepatocyte CLint at 1 µM [1]: 56 µL/min/1e6 cells
logD [3]: 2.2
SMILES: COc1cc(N(CC(C)C)c2ccc(F)c3ccccc23)cnc1C(=O)[C@H]1C[C@@H]1C(=O)O

hepatocyte CLint at 1 µM [1]: < 1.1 µL/min/1e6 cells
IC50 [2]: 8200 nM
logD [3]: 1.2
SMILES: COc1cc(N(CC2CC2)c2cc(C(F)(F)F)ccc2F)cnc1C(=O)[C@H]1C[C@@H]1C(=O)O

hepatocyte CLint at 1 µM [1]: 5.4 µL/min/1e6 cells
IC50 [2]: 640 nM
logD [3]: 1.9
SMILES: COc1cc(N(CC2CC2)c2ccc(F)c3ccccc23)cnc1C(=O)[C@H]1C[C@@H]1C(=O)O

logD [3]: 1.1
SMILES: COc1cc(N(CC(F)(F)F)c2cccc(C(F)(F)F)c2)cnc1C(=O)[C@H]1C[C@@H]1C(=O)O

hepatocyte CLint at 1 µM [1]: 1.3 µL/min/1e6 cells
logD [3]: 1.1
SMILES: COc1cc(N(CC2CC2)c2cc(Cl)ccc2F)cnc1C(=O)[C@H]1C[C@@H]1C(=O)O

hepatocyte CLint at 1 µM [1]: 3.1 µL/min/1e6 cells
IC50 [2]: 20000 nM
logD [3]: 0.7
SMILES: CCN(c1cccc(C(F)(F)F)c1)c1cnc(C(=O)[C@H]2C[C@@H]2C(=O)O)c(OC)c1

hepatocyte CLint at 1 µM [1]: 4.3 µL/min/1e6 cells
logD [3]: 1.6
SMILES: COc1cc(N(CC2CC2)c2ccc(Cl)c(Cl)c2)cnc1C(=O)[C@H]1C[C@@H]1C(=O)O

hepatocyte CLint at 1 µM [1]: 2.9 µL/min/1e6 cells
logD [3]: 1.6
SMILES: COc1cc(N(CC(C)C)c2cccc(C(F)(F)F)c2)cnc1C(=O)[C@H]1C[C@@H]1C(=O)O

hepatocyte CLint at 1 µM [1]: 7.2 µL/min/1e6 cells
IC50 [2]: 19000 nM
logD [3]: 1.2
SMILES: CCCN(c1cccc(C(F)(F)F)c1)c1cnc(C(=O)[C@H]2C[C@@H]2C(=O)O)c(OC)c1

hepatocyte CLint at 1 µM [1]: 2.3 µL/min/1e6 cells
IC50 [2]: 11000 nM
logD [3]: 1.4
SMILES: COc1cc(N(CC2CC2)c2cccc(C(F)(F)F)c2)cnc1C(=O)[C@H]1C[C@@H]1C(=O)O

hepatocyte CLint at 1 µM [1]: 3.8 µL/min/1e6 cells
IC50 [2]: 2900 nM
logD [3]: 1.4
SMILES: CCN(c1cnc(C(=O)[C@H]2C[C@@H]2C(=O)O)c(OC)c1)c1ccc(F)c2ccccc12

hepatocyte CLint at 1 µM [1]: 7.6 µL/min/1e6 cells
IC50 [2]: 3500 nM
logD [3]: 1.8
SMILES: CCCN(c1cnc(C(=O)[C@H]2C[C@@H]2C(=O)O)c(OC)c1)c1ccc(F)c2ccccc12

hepatocyte CLint at 1 µM [1]: 3.1 µL/min/1e6 cells
IC50 [2]: 3000 nM
logD [3]: 1.2
SMILES: COc1cc(N(CC2CC2)c2ccc(F)c(Cl)c2)cnc1C(=O)[C@H]1C[C@@H]1C(=O)O

hepatocyte CLint at 1 µM [1]: 1.8 µL/min/1e6 cells
logD [3]: 1.3
SMILES: COc1cc(N(CC2CC2)c2ccc(Cl)cc2)cnc1C(=O)[C@@H]1C[C@H]1C(=O)O (relative stereo)

IC50 [2]: > 100000 nM
logD [3]: 0
SMILES: COc1cc(N(CC(C)(C)O)c2cccc(C(F)(F)F)c2)cnc1C(=O)[C@H]1C[C@@H]1C(=O)O

IC50 [4]: 2.4 nM
SMILES: COc1nc(C(=O)[C@H]2C[C@@H]2C(=O)O)ncc1N(CC1CC1)c1cccc2ccccc12
